In ChEMBL document CHEMBL1201862, “PubChem BioAssay data set” (2004):
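Compound exposure: 48 hours, 5 concentrations, 96-well plates. GI50: concentration for 50% inhibition of growth.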 Calls of active or inactive are those of the source. No stated cut-off is given here; in the data, active = GI50 up to about 1.1 µM and inactive = higher.

Columns and labels:
Experiment in all cases: inhibition of tumour cell growth, NCI panel, 48 h
[1] = system: NCI-H460
[2] = system: COLO 205
[3] = system: SF-539
[4] = system: A549
[5] = system: SW-620
[6] = system: M14
[7] = system: NCI-H23
[8] = system: SNB-75
[9] = system: HCT-116
[10] = system: HL-60
[11] = system: HOP-92
[12] = system: UO-31
[13] = system: UACC-62
[14] = system: HCC 2998
[15] = system: OVCAR-3
[16] = system: SNB-19

Row | Structure (SMILES) | GI50 [1] | GI50 [2] | GI50 [3] | GI50 [4] | GI50 [5] | GI50 [6] | GI50 [7] | GI50 [8] | GI50 [9] | GI50 [10] | GI50 [11] | GI50 [12] | GI50 [13] | GI50 [14] | GI50 [15] | GI50 [16]
1 | COc1ccc(C2S/C(=C\c3ccccc3)C(=O)N2NC(=O)Cc2ccccc2)cc1 (centres undefined) | > 100 µM (inactive) | > 100 µM (inactive) | > 100 µM (inactive) | > 100 µM (inactive) | > 100 µM (inactive) | > 100 µM (inactive) | > 100 µM (inactive) | > 100 µM (inactive) | > 100 µM (inactive) | 55.8 µM (inactive) | > 100 µM (inactive) | > 100 µM (inactive) | > 100 µM (inactive) |  |  | 
2 | Nc1ccc(C(c2ccccc2)(c2ccccc2)c2ccccc2)cc1 | 28.8 µM (inactive) | > 100 µM (inactive) | 37 µM (inactive) | > 100 µM (inactive) | > 100 µM (inactive) | 15.8 µM (inactive) | 30.1 µM (inactive) | 13.5 µM (inactive) | 62.1 µM (inactive) | 26.8 µM (inactive) | 14 µM (inactive) |  | 16.5 µM (inactive) | > 100 µM (inactive) | 64.6 µM (inactive) | 
3 | CCOC(=O)c1nn2c(nc1=O)sc1ccc3ccccc3c12 | > 100 µM (inactive) | > 100 µM (inactive) | > 100 µM (inactive) | > 100 µM (inactive) | > 100 µM (inactive) | > 100 µM (inactive) | > 100 µM (inactive) | > 100 µM (inactive) | > 100 µM (inactive) | > 100 µM (inactive) | > 100 µM (inactive) | > 100 µM (inactive) | > 100 µM (inactive) | > 100 µM (inactive) | > 100 µM (inactive) | > 100 µM (inactive)
4 | Cc1cc(C)nc(NS(=O)(=O)c2ccc(NC(=O)c3cccc4c(Nc5ccc(S(=O)(=O)N=C(N)N)cc5)c5ccc(Cl)cc5nc34)cc2)n1 | 42.8 µM (inactive) |  | 17.2 µM (inactive) |  |  | > 100 µM (inactive) | 30.8 µM (inactive) | > 100 µM (inactive) | 17.4 µM (inactive) |  |  | 41.8 µM (inactive) | 34.4 µM (inactive) | 19.8 µM (inactive) | 22.2 µM (inactive) | 23.1 µM (inactive)
5 | COc1ccc2c(c1)CN1CCc3c(cc(OC)c(OC)c3OC)C1C2 (centres undefined) |  | > 100 µM (inactive) | > 100 µM (inactive) | > 100 µM (inactive) | > 100 µM (inactive) | 87.1 µM (inactive) | > 100 µM (inactive) | > 100 µM (inactive) | > 100 µM (inactive) | 41.5 µM (inactive) | > 100 µM (inactive) | > 100 µM (inactive) | 74.1 µM (inactive) | > 100 µM (inactive) | > 100 µM (inactive) | > 100 µM (inactive)
6 | Cc1cccc(C(C)(C)C)c1NC(=O)CC1C(=O)Nc2ccccc2S1(=O)=O (centres undefined) | 11 µM (inactive) |  | 3.14 µM (inactive) | 13.6 µM (inactive) | 10.4 µM (inactive) | 12.8 µM (inactive) | 5.38 µM (inactive) | 12.5 µM (inactive) | 10.4 µM (inactive) | 3.25 µM (inactive) | 11.5 µM (inactive) | 11.2 µM (inactive) | 5.06 µM (inactive) | 8.11 µM (inactive) | 5.55 µM (inactive) | 15.5 µM (inactive)
7 | CC(=O)OC(C)(C)/C=C/C(=O)[C@](C)(O)[C@H]1[C@H](O)C[C@@]2(C)[C@@H]3CC=C4[C@@H](C[C@H](O)[C@H](O)C4(C)C)[C@]3(C)C(=O)C[C@]12C | 1.07 µM (active) | 0.31 µM (active) | 0.303 µM (active) | 0.822 µM (active) | 0.274 µM (active) | 0.442 µM (active) | 0.324 µM (active) | 0.261 µM (active) | 0.277 µM (active) | 0.243 µM (active) | 0.22 µM (active) | 0.839 µM (active) | 0.48 µM (active) | 0.822 µM (active) | 0.314 µM (active) | 0.7 µM (active)
8 | C/C(O)=C1\CC2CN3CCc4c([nH]c5ccccc45)C3CC2CC1=O (centres undefined) | > 100 µM (inactive) | > 100 µM (inactive) | 75.2 µM (inactive) | > 100 µM (inactive) | 38.5 µM (inactive) | 49.4 µM (inactive) | 92 µM (inactive) | 21.4 µM (inactive) | 52.1 µM (inactive) | 32.7 µM (inactive) |  | 37.9 µM (inactive) |  | 58.9 µM (inactive) | 27.9 µM (inactive) | > 100 µM (inactive)
9 | O=C(NC(=O)c1cc2cc(Br)cc(Br)c2oc1=O)Oc1ccccc1 | > 100 µM (inactive) | > 100 µM (inactive) | 87.3 µM (inactive) | > 100 µM (inactive) | > 100 µM (inactive) | > 100 µM (inactive) | > 100 µM (inactive) | 13.7 µM (inactive) | > 100 µM (inactive) |  | > 100 µM (inactive) | > 100 µM (inactive) | 50.7 µM (inactive) | > 100 µM (inactive) | > 100 µM (inactive) | 59.8 µM (inactive)
